According to paper PMC4987650, “Structural Investigation of Park’s Nucleotide on Bacterial Translocase MraY: Discovery of Unexpected MraY Inhibitors” (Scientific Reports, 2016):

Legend:
MraYBS = target: T1, MraYBS (Bacillus subtilis, UniProt Q03521); experiment: Biolayer interferometry-based (BLI) binding assay
T1 construct: MBP; made in house
T1 sequence (Q03521 1-324): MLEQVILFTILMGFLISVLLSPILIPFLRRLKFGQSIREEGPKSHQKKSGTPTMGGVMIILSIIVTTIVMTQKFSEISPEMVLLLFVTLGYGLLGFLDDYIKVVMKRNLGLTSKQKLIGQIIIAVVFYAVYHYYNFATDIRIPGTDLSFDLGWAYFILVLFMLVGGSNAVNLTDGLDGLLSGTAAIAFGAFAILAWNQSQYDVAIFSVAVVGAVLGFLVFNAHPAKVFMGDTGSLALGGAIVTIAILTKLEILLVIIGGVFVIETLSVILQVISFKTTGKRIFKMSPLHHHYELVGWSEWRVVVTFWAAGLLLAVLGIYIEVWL
Procedure: MraYBS binding was measured in a biolayer interferometry-based binding assay on Octet Red96® instrument (ForteBio, Inc.). The biotinylation of MraYBS was performed with using EZ-Link® Sulfo-NHS-LC-LC-Biotin Kit (Thermo Fisher Scientific, Inc.). In general, MraYBS (1.7 mg/mL) in 50 μL reaction buffer (0.01 M HEPES pH 7.4, 0.15 M NaCl, 0.005% v/v Surfactant P20), was added by the sulfo-NHS-LC-LC-biotin reagent (1 mM, 1 μL). After incubating for 30 minutes at room temperature, the biotinylated-MraYBS was purified by a Zeba^TM Spin Desalting Columns, 7K MWCO (Thermo Fisher Scientific, Inc.), and the buffer was changed to the binding buffer (30 mM Tris, 10 mM MgCl2, 10 mM NaCl, 0.1 mM Tween-20, pH 8.0) during the purification. Comparing to the non-biotinylated-MraYBS, the biotinylated-MraYBS remains 62% activity measured by the HPLC-based MraY functional assay in 1 h reaction. The biotinylated MraYBS was then immobilized to Super Streptavidin (SSA) Octet tips (ForteBio, Inc.) for reaching a fixed signal of 3 nm. Before the assay starting, the MraYBS-labeled SSA sensors were pre-soaked in binding buffer for 30 min. The association of Park’s analogues with MraYBS were measured by incubating MraYBS-labeled SSA sensors in binding buffer containing various concentrations of samples in Octet Red system. The dissociation was monitored by moving the ligand biosenors from the analyte solution to binding buffer. The dissociation constants (KD) were obtained by nonlinear regression analysis using the specific binding model with the GraphPad Prism program (GraphPad Software, San Diego, CA).

MraYBS W297A mutant = target: T2, MraYBS W297A mutant (Bacillus subtilis, UniProt Q03521, W297A); experiment: HPLC-based MraY functional assay, mutant MraY; assay type: biochemical; settings: consumption of 6 in one-hour reaction
T2 construct: MBP; made in house
Procedure: The purified MraY from Bacillus subtilis was prepared as described in our previous reports. For 5 and 7–10, the reaction mixture containing MraYBS (10 μg/mL), C55P (200 μM) in 40 μL reaction buffer (30 mM Tris, 10 mM MgCl2, 10 mM NaCl, 0.1 mM Tween-20, 2.5% DMSO, pH 8.0) were pre-incubated at 37 °C for 15 min. The reactions were initiated by the addition of Park’s nucleotide analogues (10 μM) and incubated at 37 °C for 1 h. The reaction mixtures were added by uridine (0.01 mg/mL) as the internal standard and heated to 100 °C to stop the transferring reaction. The samples were analyzed by RP-C18 HPLC with gradient elution of 0.25 M NH4HCO3(aq)/15% MeOH in water (100:0 to 0:100) at a flow rate of 1 mL/min over 45 min, and the peaks of substrates were monitored at UV 260 nm. […] The reaction mixtures were heated to 100 °C to stop the transferring reaction, and samples were analyzed by an anion-exchange column (SAX1, Supelco Co., 5 μm, 4.6 × 250 mm) with a linear gradient elution of NH4OAc (20 mM to 1 M in MeOH) at a flow rate of 1.0 mL/min over 30 min. The fluorescent substrates were monitored with λex 466 nm/λem 535 nm by fluorescence detector. […]

T2 sequence (Q03521 whole entry W297A): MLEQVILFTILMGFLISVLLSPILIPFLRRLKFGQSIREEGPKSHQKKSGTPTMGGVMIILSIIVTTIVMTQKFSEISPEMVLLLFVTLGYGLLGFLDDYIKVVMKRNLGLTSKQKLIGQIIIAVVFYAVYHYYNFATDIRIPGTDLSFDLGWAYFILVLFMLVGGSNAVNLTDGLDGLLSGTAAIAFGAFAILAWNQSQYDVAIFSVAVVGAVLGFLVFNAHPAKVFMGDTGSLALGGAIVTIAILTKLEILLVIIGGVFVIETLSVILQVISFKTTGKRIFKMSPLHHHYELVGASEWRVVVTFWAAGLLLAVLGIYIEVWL

SMILES: CC(=O)N[C@H]1[C@@H](OP(=O)(O)OP(=O)(O)OC[C@H]2O[C@@H](n3ccc(=O)[nH]c3=O)[C@H](O)[C@@H]2O)O[C@H](CO)[C@@H](O)[C@@H]1O[C@H](C)C(=O)N[C@@H](C)C(=O)N[C@H](CCC(=O)N[C@@H](CCCCNC(=O)CCCCCNc1ccc([N+](=O)[O-])c2nonc12)C(=O)N[C@H](C)C(=O)N[C@H](C)C(=O)O)C(=O)O [Compound 6, NBD-Park’s nucleotide]
- Kd (MraYBS): 127 µM
- Relative activity (MraYBS W297A mutant): 17%
